Paper PMC6270271, “Accidental Interaction between PDZ Domains and Diclofenac Revealed by NMR-Assisted Virtual Screening” (Molecules, 2013)

How the values were obtained:
[1] = molecular target: T1, Harmonin (Harmonin_PDZ2, PDZ8) (Homo sapiens, UniProt Q9Y6N9); experiment: 1H-15N SOFAST-HMQC NMR titration; type: binding
T1 construct: gene USH1C; PDZ2 domain, 100 residues
T1 sequence (Q9Y6N9 201-300 limits assumed): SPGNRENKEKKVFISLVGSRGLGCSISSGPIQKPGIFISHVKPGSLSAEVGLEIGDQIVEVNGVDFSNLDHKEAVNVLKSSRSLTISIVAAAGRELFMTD
Description: 1H-15N SOFAST-HMQC NMR titration on Harmonin (Harmonin_PDZ2, PDZ8) | PDZ8|−|+|−|−|−|−|−|++|−|−

[2] = molecular target: T2, InaDL (InaDL_PDZ6, PDZ13) (Homo sapiens, UniProt Q8NI35); experiment: 1H-15N SOFAST-HMQC NMR titration; type: binding
T2 construct: gene PATJ; PDZ6 domain, 113 residues
T2 sequence (Q8NI35 1058-1170 limits assumed): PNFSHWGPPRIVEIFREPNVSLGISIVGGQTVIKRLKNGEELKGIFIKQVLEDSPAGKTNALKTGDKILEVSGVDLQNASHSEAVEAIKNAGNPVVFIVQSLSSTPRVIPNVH

[3] = molecular target: T3, mouse ZO-1 (mZO1-PDZ1) (Mus musculus, UniProt P39447); experiment: 1H-15N SOFAST-HMQC NMR titration; V92E-R96Q mutant abolishes binding
T3 construct: gene Tjp1
T3 sequence (P39447 18-110): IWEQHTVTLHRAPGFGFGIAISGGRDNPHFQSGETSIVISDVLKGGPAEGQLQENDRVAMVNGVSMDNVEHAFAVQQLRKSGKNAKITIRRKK

[4] = molecular target: T4, RHPN2 (RHPN2_PDZ, PDZ7) (Homo sapiens, UniProt Q8IUC4); experiment: 1H-15N SOFAST-HMQC NMR titration; type: binding
T4 construct: PDZ domain, 99 residues
T4 sequence (Q8IUC4 515-593 limits assumed): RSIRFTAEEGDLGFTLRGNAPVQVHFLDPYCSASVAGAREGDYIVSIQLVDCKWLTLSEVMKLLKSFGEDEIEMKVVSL
Description: 1H-15N SOFAST-HMQC NMR titration on RHPN2 (RHPN2_PDZ, PDZ7) | PDZ7|−|++|++|−|−|−|−|+|−|−

[5] = molecular target: T3, mouse ZO-1 (mZO1-PDZ1); experiment: 1H-15N SOFAST-HMQC NMR titration; type: binding

O=C(O)Cc1ccccc1Nc1c(Cl)cccc1Cl [DIF, 2-[(2,6-dichlorophenyl)amino] benzene-acetic acid]
1H-15N SOFAST-HMQC NMR titration [1]: PDZ8|−|+|−|−|−|−|−|++|−|−
1H-15N SOFAST-HMQC NMR titration [2]: PDZ13|n. e.|++|+|−|−|−|−|++|−|−
Kd [3]: 1.4 mM
1H-15N SOFAST-HMQC NMR titration [4]: PDZ7|−|++|++|−|−|−|−|+|−|−

O=C(O)c1ccccc1Nc1cccc(C(F)(F)F)c1 [FLF, 2-[[3-(trifluoro-methyl)phenyl]amino] benzoic acid]
1H-15N SOFAST-HMQC NMR titration [1]: PDZ8|−|+|−|−|−|−|−|++|−|−
Kd [5]: 750 µM
1H-15N SOFAST-HMQC NMR titration [2]: PDZ13|n. e.|++|+|−|−|−|−|++|−|−
1H-15N SOFAST-HMQC NMR titration [4]: PDZ7|−|++|++|−|−|−|−|+|−|−

CC(=O)O[C@H]1C[C@@]2(C)[C@@H](C[C@@H](O)[C@H]3[C@@]4(C)CC[C@@H](O)[C@@H](C)[C@@H]4CC[C@@]32C)/C1=C(\CCC=C(C)C)C(=O)O [FUA, fusidic acid]
1H-15N SOFAST-HMQC NMR titration [4]: PDZ7|−|++|++|−|−|−|−|+|−|−
